From patent US8574563B2 (Bristol-Myers Squibb Company, priority 2006, dated 2013)

system: HCV 1b-377-neo replicon cells; test: HCV replicon assay, HCV 1b-377-neo replicon cells (1b FRET); format: cell-based, Hepatitis C virus genotype 1b; conditions: HCV 1b-377-neo replicon cells; HCV 1b genotype
Outline: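 Compounds were tested in genotype 1b subgenomic replicon cells carrying a neomycin marker, alongside a matched replicon line with an NS5A Y2065H substitution that confers resistance to a reference NS5A inhibitor.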

`C[C@@H](C(=O)N1CCC[C@H]1c1ncc(-c2ccc(-c3ccc(-c4cnc([C@@H]5CCCN5C(=O)[C@H](C)N(C)C)[nH]4)cc3)cc2)[nH]1)N(C)C` [Example M19, (2S,2′S)-1,1′-(4,4′-biphenyldiylbis(1H-imidazole-5,2-diyl(2S)-2,1-pyrrolidinediyl))bis(N,N-dimethyl-1-oxo-2-propanamine)] was tested, and the “EC50 range against HCV 1b (Table 2, Range)” value was “>A”.

same assay, conditions: Hepatitis C virus, HCV 1b-377-neo replicon cells; HCV 1b genotype; read-out: EC50 range against HCV 1b (Table 2, Range)

`COC(=O)N[C@@H](C(=O)N1CCC[C@H]1c1ncc(-c2ccc(-c3ccc(-c4cnc([C@@H]5CCCN5C(=O)[C@H](NC(=O)OC)c5ccccc5Cl)[nH]4)cc3)cc2)[nH]1)c1ccccc1` [Example 107-41, methyl ((1R)-2-((2S)-2-(5-(4′-(2-((2S)-1-((2R)-2-(2-chlorophenyl)-2-((methoxy-carbonyl)amino)acetyl)-2-pyrrolidinyl)-1H-imidazol-5-yl)-4-biphenylyl)-1H-imidazol-2-yl)-1-pyrrolidinyl)-2-oxo-1-phenylethyl) carbamate] and `COC(=O)N[C@@H](C(=O)N1CCC[C@H]1c1ncc(-c2ccc(-c3ccc(-c4cnc([C@@H]5CCCN5C(=O)[C@@H](C)O)[nH]4)cc3)cc2)[nH]1)c1ccccc1` [Example 35, methyl ((1R)-2-((2S)-2-(5-(4′-(2-((2S)-1-((2R)-2-hydroxypropanoyl)-2-pyrrolidinyl)-1H-imidazol-5-yl)-4-biphenylyl)-1H-imidazol-2-yl)-1-pyrrolidinyl)-2-oxo-1-phenylethyl)carbamate] fall in the same range of EC50: 0.001 to 0.999 nM for the first, 0.001 to 0.999 nM for the second.

`CCN(C)[C@@H](C(=O)N1CCC[C@H]1c1ncc(-c2ccc(-c3ccc(-c4cnc([C@@H]5CCCN5C(=O)[C@@H](NC(=O)OC)C(C)C)[nH]4)cc3)cc2)[nH]1)c1ccccc1` [Example M78, methyl ((1S)-1-(((2S)-2-(5-(4′-(2-((2S)-1-((2R)-2-(ethyl(methyl)amino)-2-phenylacetyl)-2-pyrrolidinyl)-1H-imidazol-5-yl)-4-biphenylyl)-1H imidazol-2-yl)-1-pyrrolidinyl)carbonyl)-2-methylpropyl)carbamate] and `CCN(CC)[C@@H](C(=O)N1CCC[C@H]1c1ncc(-c2ccc(-c3ccc(-c4cnc([C@@H]5CCCN5C(=O)[C@H](C)NC(=O)OC)[nH]4)cc3)cc2)[nH]1)c1ccccc1` [Example M49, methyl ((1S)-2-((2S)-2-(5-(4′-(2-((2S)-1-((2R)-2-(diethylamino)-2-phenylacetyl)-2-pyrrolidinyl)-1H-imidazol-5-yl)-4-biphenylyl)-1H-imidazol-2-yl)-1-pyrrolidinyl)-1-methyl-2-oxoethyl)carbamate] fall in the same range of EC50: 1 to 99 nM for the first, 1 to 99 nM for the second.

`CCN(CC)[C@@H](C(=O)N1C[C@@H](F)C[C@H]1c1ncc(-c2ccc(-c3ccc(-c4cnc([C@@H]5C[C@H](F)CN5C(=O)[C@@H](NC(=O)OC)C(C)C)[nH]4)cc3)cc2)[nH]1)c1ccccc1` [JG-15, methyl ((1S)-1-(((2S,4S)-2-(5-(4′-(2-((2S,4S)-1-((2R)-2-(diethylamino)-2-phenylacetyl)-4-fluoro-2-pyrrolidinyl)-1H-imidazol-5-yl)-4-biphenylyl)-1H-imidazol-2-yl)-4-fluoro-1-pyrrolidinyl)carbonyl)-2-methylpropyl)carbamate] and `COC(=O)N[C@@H](C(=O)N1CCC[C@H]1c1ncc(-c2ccc(-c3ccc(-c4cnc([C@@H]5CCCN5C(=O)c5cncn5C)[nH]4)cc3)cc2)[nH]1)c1ccccc1` [Example 49, methyl ((1R)-2-((2S)-2-(5-(4′-(2-((2S)-1-((1-methyl-1H-imidazol-5-yl)carbonyl)-2-pyrrolidinyl)-1H-imidazol-5-yl)-4-biphenylyl)-1H-imidazol-2-yl)-1-pyrrolidinyl)-2-oxo-1-phenylethyl)carbamate] fall in the same range of EC50: 0.001 to 0.999 nM for the first, 0.001 to 0.999 nM for the second.

Compared with `COC(=O)N[C@@H](C(=O)N1CCC[C@H]1c1ncc(-c2ccc(-c3ccc(-c4cnc([C@@H]5CCCN5C(=O)c5cnc[nH]5)[nH]4)cc3)cc2)[nH]1)c1ccccc1` [Example M65, methyl ((1R)-2-((2S)-2-(5-(4′-(2-((2S)-1-(1H-imidazol-5-ylcarbonyl)-2-pyrrolidinyl)-1H-imidazol-5-yl)-4-biphenylyl)-1H-imidazol-2-yl)-1-pyrrolidinyl)-2-oxo-1-phenylethyl)carbamate], `COC(=O)N[C@@H](C(=O)N1CCC[C@H]1c1ncc(-c2ccc(-c3ccc(-c4cnc([C@@H]5CCCN5C(=O)Cc5cn(C)cn5)[nH]4)cc3)cc2)[nH]1)c1ccccc1` [Example 62, methyl ((1R)-2-((2S)-2-(5-(4′-(2-((2S)-1-((1-methyl-1H-imidazol-4-yl)acetyl)-2-pyrrolidinyl)-1H-imidazol-5-yl)-4-biphenylyl)-1H-imidazol-2-yl)-1-pyrrolidinyl)-2-oxo-1-phenylethyl)carbamate] is lower in EC50: 1 to 99 nM for the first, 0.001 to 0.999 nM for the second.

`COC(=O)N[C@@H](C(=O)N(C)[C@@H](C)c1ncc(-c2ccc(-c3ccc(-c4cnc([C@@H]5CCCN5C(=O)[C@@H](c5ccccc5)N5CCCCC5)[nH]4)cc3)cc2)[nH]1)c1ccccc1` [Example 131.1-2, methyl ((1R)-2-(methyl((1S)-1-(5-(4′-(2-((2S)-1-((2R)-2-phenyl-2-(1-piperidinyl)acetyl)-2-pyrrolidinyl)-1H-imidazol-5-yl)-4-biphenylyl)-1H-imidazol-2-yl)ethyl)amino)-2-oxo-1-phenylethyl)carbamate] and `COC(=O)N[C@@H](C(=O)N[C@@H](C)c1ncc(-c2ccc(-c3ncc(-c4cnc([C@@H]5CCCN5C(=O)[C@@H](c5ccccc5)N5CCCCC5)[nH]4)cn3)cc2)[nH]1)c1ccccc1` [Example 152l-2, methyl ((1R)-2-oxo-1-phenyl-2-(((1S)-1-(4-(4-(5-(2-((2S)-1-((2R)-2-phenyl-2-(1-piperidinyl)acetyl)-2-pyrrolidinyl)-1H-imidazol-5-yl)-2-pyrimidinyl)phenyl)-1H-imidazol-2-yl)ethyl)amino)ethyl)carbamate] fall in the same range of EC50: 0.001 to 0.999 nM for the first, 0.001 to 0.999 nM for the second.

Compared with `COC(=O)N[C@H](C(=O)N1CCC[C@H]1c1ncc(-c2ccc(-c3ccc(-c4nc([C@@H]5CCCN5C(=O)[C@@H](NC(=O)OC)C(C)C)[nH]c4CC(OC)OC)cc3)cc2)[nH]1)C(C)C` [Example J14a.1, methyl ((1S)-1-(((2S)-2-(4-(2,2-dimethoxyethyl)-5-(4′-(2-((2S)-1-((2S)-2-((methoxycarbonyl)amino)-3-methylbutanoyl)-2-pyrrolidinyl)-1H-imidazol-4-yl)-4-biphenylyl)-1H-imidazol-2-yl)-1-pyrrolidinyl)carbonyl)-2-methylpropyl)carbamate], `COC(=O)C[C@H](NC(=O)OC)C(=O)N1CCC[C@H]1c1ncc(-c2ccc(-c3ccc(-c4cnc([C@@H]5CCCN5C(=O)[C@@H](NC(=O)OC)C(C)C)[nH]4)cc3)cc2)[nH]1` [Example M110, methyl (3S)-3-((methoxycarbonyl)amino)-4-((2S)-2-(5-(4′-(2-((2S)-1-(N-(methoxycarbonyl)-L-valyl)-2-pyrrolidinyl)-1H-imidazol-5-yl)-4-biphenylyl)-1H-imidazol-2-yl)-1-pyrrolidinyl)-4-oxobutanoate] is higher in EC50: 0.001 to 0.999 nM for the first, 1 to 99 nM for the second.

`O=C([C@@H](c1ccccc1)N1CCCCC1)N1CC(F)(F)C[C@H]1c1nc(-c2ccc(-c3ccc(-c4cnc([C@@H]5CCCN5C(=O)[C@@H](c5ccccc5)N5CCCCC5)[nH]4)cc3)cc2)c[nH]1` [Example 24-10, 1-((R)-2-((2S)-2-(4-(4′-(2-((2S)-4,4-difluoro-1-((2R)-2-phenyl-2-(1-piperidinyl)acetyl)-2-pyrrolidinyl)-1H-imidazol-4-yl)-4-biphenylyl)-1H-imidazol-2-yl)-1-pyrrolidinyl)-2-oxo-1-phenylethyl)piperidine] and `O=C([C@H]1CCN(Cc2ccccc2)C1)N1CCC[C@H]1c1ncc(-c2ccc(-c3ccc(-c4cnc([C@@H]5CCCN5C(=O)[C@@H](c5ccccc5)N5CCCCC5)[nH]4)cc3)cc2)[nH]1` [Example 107-18, 1-((1R)-2-((2S)-2-(5-(4′-(2-((2S)-1-(((3S)-1-benzyl-3-pyrrolidinyl)carbonyl)-2-pyrrolidinyl)-1H-imidazol-5-yl)-4-biphenylyl)-1H-imidazol-2-yl)-1-pyrrolidinyl)-2-oxo-1-phenylethyl) piperidine] fall in the same range of EC50: 0.001 to 0.999 nM for the first, 0.001 to 0.999 nM for the second.

`CC(C)[C@@H](C(=O)N1CCC[C@H]1c1ncc(-c2ccc(-c3ccc(-c4cnc([C@@H]5CCCN5C(=O)[C@H](C(C)C)N5CCCNC5=O)[nH]4)cc3)cc2)[nH]1)N1CCCNC1=O` [OL-5, 1,1′-(4,4′-biphenyldiylbis(1H-imidazole-4,2-diyl(2S)-2,1-pyrrolidinediyl((2S)-3-methyl-1-oxo-1,2-butanediyl)))ditetrahydro-2(1H)-pyrimidinone] and `COC(=O)N[C@@H](C(=O)N1CCC[C@H]1c1ncc(-c2ccc(-c3ccc(-c4cnc([C@@H]5CCCN5C(=O)N5CCOCC5)[nH]4)cc3)cc2)[nH]1)c1ccccc1` [Example 78, methyl ((1R)-2-((2S)-2-(5-(4′-(2-((2S)-1-(4-morpholinylcarbonyl)-2-pyrrolidinyl)-1H-imidazol-5-yl)-4-biphenylyl)-1H-imidazol-2-yl)-1-pyrrolidinyl)-2-oxo-1-phenylethyl)carbamate] fall in the same range of EC50: 0.001 to 0.999 nM for the first, 0.001 to 0.999 nM for the second.

Compared with `CN1CCN(C(=O)N[C@@H](C(=O)N2CCC[C@H]2c2ncc(-c3ccc(-c4ccc(-c5cnc([C@@H]6CCCN6C(=O)[C@H](NC(=O)N6CCN(C)CC6)c6ccccc6)[nH]5)cc4)cc3)[nH]2)c2ccccc2)CC1` [Example 25-7, N,N′-(4,4′-biphenyldiylbis(1H-imidazole-5,2-diyl(2S)-2,1-pyrrolidinediyl((1R)-2-oxo-1-phenyl-2,1-ethanediyl)))bis(4-methyl-1-piperazinecarboxamide)], `C[C@H](NC(=O)[C@@H](c1ccccc1)N(C)C)c1ncc(-c2cnc(-c3ccc(-c4cnc([C@@H]5CCCN5C(=O)[C@@H](c5ccccc5)N(C)C)[nH]4)cc3)nc2)[nH]1` [Example 152j-16, (2R)-2-(dimethylamino)-N-((1S)-1-(5-(2-(4-(2-((2S)-1-((2R)-2-(dimethylamino)-2-phenylacetyl)-2-pyrrolidinyl)-1H-imidazol-5-yl)phenyl)-5-pyrimidinyl)-1H-imidazol-2-yl)ethyl)-2-phenylacetamide] is lower in EC50: 1 to 99 nM for the first, 0.001 to 0.999 nM for the second. The second is the more potent here.
